Experimental data reported in patent publication US10506759B2, “Rice seed treatment agent” (KUMIAI CHEMICAL INDUSTRY CO., LTD., priority 2015, dated 2019).
Like-named read-outs stand apart in the source and are kept apart here.

Assays:
paddy rice [1] = assay: Test Example 1: germination rate of treated paddy seeds (pot test); format: in vivo
Procedure: (§1) Treatment of dried paddy seeds was carried out at a coating ratio of 0.5 (seeds:iron powder=1:0.5). More specifically, paddy seeds, an iron powder, and calcined gypsum were mixed and stirred together while spraying water thereon, using a coating machine according to a conventional method, to coat the seeds with the iron powder and the calcined gypsum. The outer layer of the coated seeds was further similarly coated with finishing calcined gypsum mixed with each of the paddy seed treatment agents containing the herbicidal active components shown in Tables 2 to 6.
In a 200-cm^2 plastic pot, paddy field soil was placed, and tillage was carried out, followed by sowing seeds of Echinochloa oryzicola and Scirpus juncoides on the soil surface. Then, tubers of Eleocharis kuroguwai in the germination state were buried in such a manner that tips of the sprouts in tubers are exposed to the outside of the soil surface. Four paddy seeds treated with each paddy seed treatment agent obtained in Preparation Example were sown, and water was gently introduced to allow flooding to a depth of 4 cm. On Day 7 after the sowing, the water was removed by suction. When the rice seedlings have grown to the one-leaf stage, flooding was allowed again to a depth of 4 cm. On Day 15 after the sowing, the germination rate of the paddy seeds and the growth-inhibitory effect on the weeds were judged. The germination rate of the paddy seeds is expressed as %, and the growth-inhibitory effect on the weeds is expressed as a value of 0 to 100 representing the degree of inhibition, wherein 0 represents no inhibition, and 100 represents complete death.

Monochoria vaginalis = assay: Test Example 2: growth-inhibitory effect on weeds (pot test); format: in vivo; conditions: Table 6; paddy seeds sown at five-leaf stage of weed; scale 0 to 100; Day 22 after sowing
Procedure: as §1
(§2) In a 200-cm^2 plastic pot, paddy field soil was placed, and tillage was carried out, followed by sowing seeds of Scirpus juncoides on the soil surface. Then, the seeds were covered with 0.5-cm thick soil. Subsequently, flooding was allowed to a depth of 4 cm, followed by sowing seeds of Monochoria vaginalis on the soil surface. When the Monochoria vaginalis reached the five-leaf stage, three paddy seeds treated with each paddy seed treatment agent obtained in Preparation Example were sown. On Day 22 after the sowing of paddy seeds, the germination rate of the paddy seeds and the growth-inhibitory effect on the weeds were judged. Since Lindernia species were spontaneously grown in the test field soil, the growth-inhibitory effect on the Lindernia species were also judged. The germination rate of the paddy seeds is expressed as %, and the growth-inhibitory effect on the weeds is expressed as a value of 0 to 100 representing the degree of inhibition, wherein 0 represents no inhibition, and 100 represents complete death.

Scirpus juncoides = assay: as above; format: in vivo; conditions: Table 6; scale 0 to 100 (complete death); Day 22 after sowing of paddy seeds
Procedure: as §1, §2

Lindernia species = assay: as above; format: in vivo; conditions: Table 6; spontaneously grown weeds; scale 0 to 100; Day 22 after sowing
Procedure: as §1, §2

paddy rice [2] = conditions: in vivo, 22 days
Procedure: as §1
as §2, with “On Day 22 after the sowing of paddy seeds, the germination rate of the paddy seeds and the growth-inhibitory effect on the weeds were judged. Since Lindernia species were spontaneously grown in the test field soil, the growth-inhibitory effect on the Lindernia species were also judged.” left out

CS(=O)(=O)c1ccc(C(=O)C2C(=O)CCCC2=O)c(Cl)c1COCC1CCCO1 (stereo not shown) [compound 1, Tefuryltrione]
Germination rate of paddy rice (%) (paddy rice [1]; in vivo): 50%

CS(=O)(=O)c1ccc(C(=O)C2=C(Sc3ccccc3)C3CCC(C3)C2=O)c(Cl)c1 (stereo not shown) [compound 2, Benzobicyclon]
Germination rate of paddy rice (%) (paddy rice [1]; in vivo): 50%

COc1ccc(-n2c(=O)c(C(=O)C3C(=O)CCCC3=O)nc3c(Cl)cccc32)cc1 [Example 1, Fenquinotrione]
Germination rate of paddy rice (%) (paddy rice [1]; Table 2, iron-coated seeds treated with agent (a.i. g per 1 kg seeds as in row), Day 15 after sowing): 100%
Growth-inhibitory rate Monochoria vaginalis (Monochoria vaginalis): 95
Growth-inhibitory rate Scirpus juncoides (Scirpus juncoides): 98
Growth-inhibitory rate Lindernia species (Lindernia species): 95
Germination rate of paddy rice (%) (paddy rice [2]): 100%
